Results from US20230123334A1, “AMINO LIPID COMPOUND, PREPARATION METHOD THEREFOR, AND APPLICATION THEREOF” (SHENZHEN SHENXIN BIOTECHNOLOGY CO., LTD., priority 2020, published 2023).

test system: HEK293 cells; test: Preliminary screening as mRNA vectors, EGFP mRNA transfection of HEK293 cells; format: cell-based; conditions: EGFP mRNA 50 ng per well, 96-well plates; percentage of GFP fluorescent cells relative to total number of cells (Hoechst)
Experimental: Cell line: HEK293 cells (ATCC CRL-1573™)
Medium: DMEM supplemented with 10% fetal bovine serum (Invitrogen)
Screening: cell transfection on 96-well plates
Detection (readout): percentage of the number of GFP fluorescent cells relative to the total number of cells (the total number of cells was determined using nucleus dye Hoechst). Lipofectamine2000 (Invitrogen) was used as the positive control.
Method: the experimental method was basically the same with Example 4, and the mass of EGFP mRNA (TriLink) for transfection was 50 ng per well.

SMILES	Absolute mRNA transfection efficiency in HEK293 cells
CCCCCCCCCSc1nc(NCCCCCCCC)nc(NCCCN2CCOCC2)n1 [Compound D8S9N8]	5.7%
CCCCCCCCCSc1nc(NCCCCCCC)nc(NCC2CCN(C)CC2)n1 [Compound D10S9N7]	0.9%
CCCCCCCCCCCCCCCNc1nc(NCCN2CCCCC2)nc(SCCCCCCCCCC)n1 [Compound D4S10N15]	1.5%
CCCCCCCCSc1nc(NCCN2CCN(C)CC2)nc(SCCCCCC)n1 [Compound D5S6S8]	8.7%
CCCCCCCCCCCCCCCCCCSc1nc(NCCCCCCCCCCCCCCCC)nc(NCCCN2CCOCC2)n1 [Compound D8S18N16]	0.0%
CCCCCCCCCNc1nc(NCCN(CC)CC)nc(SCCCCCC)n1 [Compound D7S6N9]	2.4%
CCCCCCCCCCCCCCSc1nc(NCCCCCCCC)nc(NCCN2CCCCC2)n1 [Compound D4S14N8]	3.2%
CCCCCCCCCCCCNc1nc(NCC2CCN(C)CC2)nc(SCCCCCCCCC)n1 [Compound D10S9N12]	57.0%
CCCCCCCCCNc1nc(NCC2CCN(C)CC2)nc(SCCCCCCCC)n1 [Compound D10S8N9]	30.2%
CCCCCCCCCSc1nc(NCCCCCCCC)nc(NCC2CCN(C)CC2)n1 [Compound D10S9N8]	16.3%
CCCCCCCCCCCCNc1nc(NCCCN2CCN(C)CC2)nc(SCCCCCCCCC)n1 [Compound D9S9N12]	36.0%
CCCCCCCCCCCCCCCSc1nc(NCCN2CCOCC2)nc(SCCCCCCC)n1 [Compound D2S7S15]	17.5%
CCCCCCCCCCCCCNc1nc(NCCN2CCCC2)nc(SCCCCCC)n1 [Compound D3S6N13]	7.7%
CCCCCCCCCCCCCNc1nc(NCCN2CCOCC2)nc(SCCCCCCCCCC)n1 [Compound D2S10N13]	0.2%
CCCCCCCCCCCCCCCCSc1nc(NCCCCCCCC)nc(NCCN2CCCCC2)n1 [Compound D4S16N8]	1.3%
CCCCCCCCCCCCCCCCNc1nc(NCC2CCN(C)CC2)nc(SCCCCCCCCCC)n1 [Compound D10S10N16]	15.4%
CCCCCCCCCCCCN(CCCCCCCCCCCC)c1nc(NCCN(CC)CC)nc(SCCCCCC)n1 [D7S6^2N12]	0.2%
CCCCCCCCCCCCCCCCCCNc1nc(NCC2CCN(C)CC2)nc(SCCCCCCCCC)n1 [Compound D10S9N18]	22.4%
CCCCCCCCCCCCCCCCCCSc1nc(NCCCN2CCOCC2)nc(SCCCCCCC)n1 [Compound D8S7S18]	26.7%
CCCCCCCCCCCCCCCCNc1nc(NCCN(CC)CC)nc(SCCCCCCCCCCCC)n1 [Compound D7S12N16]	6.3%
CCCCCCCCCCSc1nc(NCCCCCCC)nc(NCCN(CC)CC)n1 [Compound D7S10N7]	1.2%
CCCCCCCCCCCNc1nc(NCCN2CCOCC2)nc(SCCCCCCC)n1 [Compound D2S7N11]	16.0%

SMILES	Absolute mRNA transfection efficiency in HEK293 cells
CCCCCCCCCCCCCCCCCCSc1nc(NCCCCCC)nc(NCC2CCN(C)CC2)n1 [Compound D10S18N6]	58.8%
CCCCCCCCCSc1nc(NCCN2CCCCC2)nc(SCCCCCCC)n1 [Compound D4S7S9]	3.7%
CCCCCCCCCCCCCCCCNc1nc(NCC2CCN(C)CC2)nc(SCCCCCCCCCCC)n1 [Compound D10S11N16]	10.4%
CCCCCCCCCCSc1nc(NCCCN2CCN(C)CC2)nc(SCCCCCCC)n1 [Compound D9S7S10]	47.1%
CCCCCCCCCCCCCCCCSc1nc(NCCN2CCCCC2)nc(SCCCCCC)n1 [Compound D4S6S16]	5.1%
CCCCCCCCCCCCCCCCCCSc1nc(NCCCCCCCCCCCC)nc(NCCN2CCCCC2)n1 [Compound D4S18N12]	0.7%
CCCCCCCCCCSc1nc(NCCCCCC)nc(NCC2CCN(C)CC2)n1 [Compound D10S10N6]	0.5%
CCCCCCCCCCCCCCCCSc1nc(NCCCCCCCCCCCCCCC)nc(NCCCN2CCOCC2)n1 [Compound D8S16N15]	0.0%
CCCCCCCCCCCCCCCCCCSc1nc(NCCN(C)C)nc(SCCCCCCC)n1 [Compound D1S7S18]	4.1%
CCCCCCCCCCCCCCCSc1nc(NCCCCCCC)nc(NCCN2CCCC2)n1 [Compound D3S15N7]	80.8%
CCCCCCCCCCCCN(CCCCCCCCCCCC)c1nc(NCCN2CCCCC2)nc(SCCCCCCCCCCC)n1 [D4S11^2N12]	0.5%
CCCCCCCCCCCCCCSc1nc(NCCCCCC)nc(NCCN(CC)CC)n1 [Compound D7S14N6]	15.7%
CCCCCCCCCCCCCNc1nc(NCCCN2CCOCC2)nc(SCCCCCCCCCCC)n1 [Compound D8S11N13]	3.1%
CCCCCCCCNc1nc(NCCCN(C)C)nc(SCCCCCCC)n1 [Compound D6S7N8]	2.8%
CCCCCCCCCCCCCNc1nc(NCCCN2CCN(C)CC2)nc(SCCCCCCCCCCCC)n1 [Compound D9S12N13]	1.0%
CCCCCCCCCSc1nc(NCCN(C)C)nc(SCCCCCCCC)n1 [Compound D1S8S9]	7.4%
CCCCCCCCCCCCN(CCCCCCCCCCCC)c1nc(NCCN2CCCC2)nc(SCCCCCCCCC)n1 [D3S9^2N12]	1.3%
CCCCCCCCCNc1nc(NCCN2CCCC2)nc(SCCCCCCC)n1 [Compound D3S7N9]	2.8%
CCCCCCCCCCSc1nc(NCCCCCCCCC)nc(NCCCN2CCOCC2)n1 [Compound D8S10N9]	0.1%
CCCCCCCCCCCCCCCCCCSc1nc(NCCCN2CCOCC2)nc(SCCCCCC)n1 [Compound D8S6S18]	12.6%
CCCCCCCCCCCCSc1nc(NCCN(CC)CC)nc(SCCCCCCC)n1 [Compound D7S7S12]	5.8%
CCCCCCCCCCCCCCCCCCNc1nc(NCCN(CC)CC)nc(SCCCCCCCCCCCCCCCC)n1 [Compound D7S16N18]	1.5%

SMILES	Absolute mRNA transfection efficiency in HEK293 cells
CCCCCCCCSc1nc(NCCN2CCCC2)nc(SCCCCCCC)n1 [Compound D3S7S8]	2.7%
CCCCCCCCCCCCN(CCCCCCCCCCCC)c1nc(NCCN(CC)CC)nc(SCCCCCCCCCC)n1 [D7S10^2N12]	0.0%
CCCCCCCCCCCCSc1nc(NCCCCCCCC)nc(NCCN2CCCC2)n1 [Compound D3S12N8]	12.3%
CCCCCCCCCNc1nc(NCCN(C)C)nc(SCCCCCC)n1 [Compound D1S6N9]	1.8%
CCCCCCCCCCCNc1nc(NCCCN2CCN(C)CC2)nc(SCCCCCCC)n1 [Compound D9S7N11]	13.8%
CCCCCCCCCCCCSc1nc(NCCN2CCCC2)nc(SCCCCCCC)n1 [Compound D3S7S12]	5.4%
CCCCCCCCCCCCCNc1nc(NCCCN2CCN(C)CC2)nc(SCCCCCCC)n1 [Compound D9S7N13]	60.4%
CCCCCCCCCCCSc1nc(NCCCCCCCC)nc(NCCN(C)C)n1 [Compound D1S11N8]	13.1%
CCCCCCCCCCCSc1nc(NCCCCCCC)nc(NCCCN2CCN(C)CC2)n1 [Compound D9S11N7]	10.5%
CCCCCCCCCCCCCCCCCCNc1nc(NCCN2CCOCC2)nc(SCCCCCCCCCCCC)n1 [Compound D2S12N18]	0.8%
CCCCCCCCCCCCCCCSc1nc(NCCCCCCCCCCCC)nc(NCCCN2CCOCC2)n1 [Compound D8S15N12]	0.3%
CCCCCCCCCCCNc1nc(NCCN2CCOCC2)nc(SCCCCCCCCC)n1 [Compound D2S9N11]	44.8%
CCCCCCCCCCCCCCCCNc1nc(NCCCN2CCOCC2)nc(SCCCCCCCCCCCCCCCC)n1 [Compound D8S16N16]	0.0%
CCCCCCCCCCCNc1nc(NCCN(CC)CC)nc(SCCCCCCCCCC)n1 [Compound D7S10N11]	3.1%
CCCCCCCCCCCSc1nc(NCCN2CCN(C)CC2)nc(SCCCCCCC)n1 [Compound D5S7S11]	42.0%
CCCCCCCCCCCCN(CCCCCCCCCCCC)c1nc(NCCCN2CCN(C)CC2)nc(SCCCCCC)n1 [D9S6^2N12]	0.1%
CCCCCCCCCCCCCCSc1nc(NCCCCCCCCCCCC)nc(NCCN2CCCC2)n1 [Compound D3S14N12]	13.5%
CCCCCCCCCCCCSc1nc(NCCCCCC)nc(NCCCN2CCOCC2)n1 [Compound D8S12N6]	0.9%
CCCCCCCCCCSc1nc(NCCCCCCCCC)nc(NCCN2CCCC2)n1 [Compound D3S10N9]	2.7%
CCCCCCCCCCCCCCCSc1nc(NCCCCCC)nc(NCCN2CCCC2)n1 [Compound D3S15N6]	33.2%
CCCCCCCCCCCCNc1nc(NCCCN2CCN(C)CC2)nc(SCCCCCCCCCCC)n1 [Compound D9S11N12]	21.7%
CCCCCCCCCCSc1nc(NCCCN2CCOCC2)nc(SCCCCCC)n1 [Compound D8S6S10]	4.2%
